Non-standard residues stand in square brackets, D forms with d. Residues, ends and D or L forms follow the SMILES beside them. *: point of attachment. Dolaproine = CO[C@@H]([C@@H]1CCCN1)[C@@H](C)C(=O)O; Dil = CC[C@H](C)[C@H](NC)[C@@H](CC(=O)O)OC; X1 = C[C@@H](N*)[C@@H](O)c1ccccc1; NMeV = CN[C@H](C(=O)O)C(C)C
System: human motor neurons
Experiment: Pharmacological effect (axonal amount, Tuj1) of antibody-MMAE conjugate
Assay type: cell-based
Conditions: t-test, significance level p<0.05
Experimental: Experiments were performed using human motor neurons, for which synaptogenesis was induced using microbeads coated with the extracellular domain of LRRTM2. Culture of cells, preparation of LRRTM2 beads and induction of presynapse were performed as described in Example 1.
As the drug, a microtubule polymerization inhibitor monomethylauristatin E (MMAE: Cat. No. #HY-15575; MedChemExpress) was used. As the anti-SYT2 N-terminal antibody and the normal rabbit antibody for control, antibodies used in Example 1 were used. Conjugate of MMAE and the antibody was prepared using MagicLink™ kit (broadpharm). Preparation of conjugate was performed according to the manufacturer's protocols.
After warming the neuronal medium at 37° C. for 30 minutes, 4-aminopyridine (Sigma Aldrich) was added to the medium to have a final concentration of 100 μM and mixed. In addition, conjugate was added to have a final concentration of 1 μg/mL and mixed. […]
The axonal amount was obtained as the sum of the brightness (=(fluorescence intensity per pixel)×(pixel number)) of Tuj1 signals in the obtained fluorescence images. The relative amount of axon was calculated as the value normalized by the results obtained using the conjugate of the control normal rabbit antibody and MMAE set to 100%. […]

CC[C@H](C)[C@@H]([C@@H](CC(=O)N1CCC[C@H]1[C@H](OC)[C@@H](C)C(=O)N[C@H](C)[C@@H](O)c1ccccc1)OC)N(C)C(=O)[C@@H](NC(=O)[C@@H](NC)C(C)C)C(C)C [MMAE, monomethyl auristatin E] (H-[NMeV]V[Dil][Dolaproine]-X1)
axonal amount, difference from the control antibody group: no significant differences

From patent US20250277028A1, “TARGETING AGENT” (JIKSAK BIOENGINEERING, INC., priority 2022, published 2025)
